We go through nine compounds from patent US4833242A, “Cephalosporin derivatives and salts thereof” (Daiichi Seiyaku Co., Ltd., priority 1984, dated 1989).

In one data set the test system is Ps. aeruginosa, 32234. Put plainly: Minimum Inhibitory Concentration, broth dilution method. Format: cell-based. The settings on record: Pseudomonas aeruginosa, 10^6 cells/ml, 37° C., 18 hours. As to the method: (§1) |Minimum Inhibitory Concentration (MIC, μg/ml) |(Broth dilution method, inoculated amount: 10^6 cells/ml, incubated |at 37° C. for 18 hours)
The next data set deals with Ps. aeruginosa, 32104. The description is as above. Format: cell-based. The note with it: Pseudomonas aeruginosa, 10^6 cells/ml, 37° C., 18 hours. As to the method:
as §1

In another data set the test system is Pr. vulgaris, 08601. Described as above. Format: cell-based. The settings on record: Proteus vulgaris, 10^6 cells/ml, 37° C., 18 hours. As to the method: as §1
The next data set relates to E. coli, NIHJ. The data set is described as above. The class given is cell-based. The settings on record: Escherichia coli, 10^6 cells/ml, 37° C., 18 hours. As to the method: as §1
In another data set the test system is S. aureus, 209P. Described as above. The class given is cell-based. The note with it: Staphylococcus aureus, 10^6 cells/ml, 37° C., 18 hours. The procedure: as §1
A further data set deals with Ser. marcescens, 10104. The data set is described as above. The class given is cell-based. The note with it: Serratia marcescens, 10^6 cells/ml, 37° C., 18 hours. The procedure: as §1
The subject of a further data set is Ps. putida, IID 5121. The description is as above. Format: cell-based. The settings on record: Pseudomonas putida, IID5121, 10^6 cells/ml, 37° C., 18 hours. The procedure: as §1
The next data set has as its system Ps. aeruginosa, 32121. The data set is described as above. The note with it: Pseudomonas aeruginosa, 10^6 cells/ml, 37° C., 18 hours. The class given is cell-based. The procedure: as §1
Data set [1] is described as follows: acute toxicity, i.v. in mice. The note with it: mouse, in vivo, iv.
The next data set concerns male rats. Nature of the data set: repeated intravenous administration to male rats for 10 consecutive days. Format: in vivo. The note with it: intravenous, 100, 300 or 1,000 mg/kg. The text has this:
The compounds of this invention are also characterized by low toxicity and, therefore, have a wide safety margin.

≈ marks a conversion by molar mass, not a printed value. Counter-ions that a name gives are not always drawn.

As usually defined, the MIC is the least concentration at which growth counts as inhibited. Read a low MIC as a more susceptible organism. As to `CO/N=C(\C(=O)N[C@@H]1C(=O)N2C(C(=O)O)=C(COC(C)=O)CS[C@H]12)c1csc(N)n1` [Cefotaxime, Sodium 7β-[2-(2-aminothiazol-4-yl)-2-methoxyiminoacetamido]-3-acetoxymethyl-3-cephem-4-carboxylate (syn isomer), reference compound], the MIC against Ps. aeruginosa, 32234 was 12.5 µg/mL; in the data set with Ps. aeruginosa, 32104, 25 µg/mL; against Pr. vulgaris, 08601, less than 0.1 µg/mL; with E. coli, NIHJ it was less than 0.1 µg/mL; against S. aureus, 209P it was 3.13 µg/mL; against Ser. marcescens, 10104, 0.39 µg/mL. The MIC is 50 µg/mL in the data set on Ps. putida, IID 5121 and 12.5 µg/mL with Ps. aeruginosa, 32121.

By LD50 is commonly meant the dose at which mortality reaches 50%. A higher LD50 goes with a less toxic substance. Take `CO/N=C(\C(=O)N[C@@H]1C(=O)N2C(C(=O)[O-])=C(C[n+]3ccc(-n4ccnc4)cc3)CS[C@H]12)c1csc(N)n1` [Compound A, 7β-[2-(2-Aminothiazol-4-yl)-2-methoxyiminoacetamido]-3-[4-(imidazol-1-yl)-1-pyridinio]methyl-3-cephem-4-carboxylate trihydrochloride (syn isomer)]: the MIC was 1.56 µg/mL in the data set on Ps. aeruginosa, 32234; 1.56 µg/mL against Ps. aeruginosa, 32104; less than 0.1 µg/mL against Pr. vulgaris, 08601; less than 0.1 µg/mL in the data set with E. coli, NIHJ; 0.39 µg/mL in the data set on S. aureus, 209P; less than 0.1 µg/mL against Ser. marcescens, 10104. The minimal inhibitory concentration (MIC) with Ps. putida, IID 5121 was determined as 1.56 µg/mL; in the data set with Ps. aeruginosa, 32121, 1.56 µg/mL. Moreover, the LD50 in data set [1] lay in the range of 2000 to 4000 mg/kg.

Consider `CO/N=C(\C(=O)N[C@@H]1C(=O)N2C(C(=O)[O-])=C(C[n+]3ccc(-n4cncn4)cc3)CS[C@H]12)c1csc(N)n1` [Compound B, 7β-[2-(2-Aminothiazol-4-yl)-2-methoxyiminoacetamido]-3-[4-(1,2,4-triazol-1-yl)-1-pyridinio]methyl-3-cephem-4-carboxylate dihydrochloride (syn isomer)], for which the MIC is 0.78 µg/mL against Ps. aeruginosa, 32234; 1.56 µg/mL against Ps. aeruginosa, 32104; less than 0.1 µg/mL in the data set with Pr. vulgaris, 08601; less than 0.1 µg/mL against E. coli, NIHJ; 0.78 µg/mL with S. aureus, 209P; less than 0.1 µg/mL against Ser. marcescens, 10104. Moreover, the MIC against Ps. putida, IID 5121 is 6.25 µg/mL; against Ps. aeruginosa, 32121, 0.78 µg/mL.

As for `CO/N=C(\C(=O)N[C@@H]1C(=O)N2C(C(=O)[O-])=C(C[n+]3ccc(-c4ncc[nH]4)cc3)CS[C@H]12)c1csc(N)n1` [Compound C, 7β-[2-(2-Aminothiazol-4-yl)-2-methoxyiminoacetamido]-3-[4-(imidazol-2-yl)-1-pyridinio]methyl-3-cephem-4-carboxylate trihydrochloride (syn isomer)], the MIC in the data set with Ps. aeruginosa, 32234 is 1.56 µg/mL; against Ps. aeruginosa, 32104 it was 25 µg/mL; in the data set on Pr. vulgaris, 08601, less than 0.1 µg/mL; against E. coli, NIHJ, less than 0.1 µg/mL; in the data set with S. aureus, 209P it was 0.78 µg/mL; in the data set on Ser. marcescens, 10104 it was less than 0.1 µg/mL. Further, the MIC against Ps. putida, IID 5121 was determined as 12.5 µg/mL; against Ps. aeruginosa, 32121, 12.5 µg/mL.

On to `CO/N=C(\C(=O)N[C@@H]1C(=O)N2C(C(=O)[O-])=C(C[n+]3ccc(-c4ncco4)cc3)CS[C@H]12)c1csc(N)n1` [Compound D, 7β-[2-(2-Aminothiazol-4-yl)-2-methoxyiminoacetamido]-3-[4-(oxazol-2-yl)-1-pyridinio]methyl-3-cephem-4-carboxylate (syn isomer)], for which the MIC against Ps. aeruginosa, 32234 is 1.56 µg/mL (≈ 2.88 µM); against Ps. aeruginosa, 32104 it was 3.13 µg/mL (≈ 5.78 µM); against Pr. vulgaris, 08601 it was less than 0.1 µg/mL; in the data set on E. coli, NIHJ, less than 0.1 µg/mL; in the data set with S. aureus, 209P, 0.78 µg/mL (≈ 1.44 µM); against Ser. marcescens, 10104, less than 0.1 µg/mL. For the same compound, the MIC with Ps. putida, IID 5121 amounted to 3.13 µg/mL (≈ 5.78 µM); in the data set with Ps. aeruginosa, 32121, 1.56 µg/mL (≈ 2.88 µM). Also, in data set [1], the LD50 is greater than 4000 mg/kg.

As for `CO/N=C(\C(=O)N[C@@H]1C(=O)N2C(C(=O)[O-])=C(C[n+]3ccc(-c4cnco4)cc3)CS[C@H]12)c1csc(N)n1` [Compound E, 7β-[2-(2-Aminothiazol-4-yl)-2-methoxyiminoacetamido]-3-[4-(oxazol-5-yl)-1-pyridinio]methyl-3-cephem-4-carboxylate (syn isomer)], in the data set on male rats, the “body weight, clinical examinations, weight of various organs and histological findings” value was “no abnormality were observed”. Also, the MIC against Ps. aeruginosa, 32234 is 0.78 µg/mL (≈ 1.44 µM); against Ps. aeruginosa, 32104, 1.56 µg/mL (≈ 2.88 µM); against Pr. vulgaris, 08601, less than 0.1 µg/mL; against E. coli, NIHJ it was less than 0.1 µg/mL; in the data set on S. aureus, 209P, 0.39 µg/mL (≈ 0.72 µM); in the data set on Ser. marcescens, 10104 it was less than 0.1 µg/mL. In addition, the MIC stood at 3.13 µg/mL (≈ 5.78 µM) against Ps. putida, IID 5121 and 0.78 µg/mL (≈ 1.44 µM) against Ps. aeruginosa, 32121. This compound came in with a median lethal dose (LD50) in [1] greater than 4000 mg/kg.

As for `CO/N=C(\C(=O)N[C@@H]1C(=O)N2C(C(=O)[O-])=C(C[n+]3ccc(-c4nnco4)cc3)CS[C@H]12)c1csc(N)n1` [Compound F, 7β-[2-(2-Aminothiazol-4-yl)-2-methoxyiminoacetamido]-3-[4-(1,3,4-oxadiazol-2-yl)-1-pyridinio]-methyl-3-cephem-4-carboxylate (syn isomer)], the MIC in the data set on Ps. aeruginosa, 32234 was 0.78 µg/mL (≈ 1.44 µM); with Ps. aeruginosa, 32104, 0.78 µg/mL (≈ 1.44 µM); with Pr. vulgaris, 08601 it was 0.1 µg/mL (≈ 0.184 µM); with E. coli, NIHJ, less than 0.1 µg/mL; against S. aureus, 209P, 0.39 µg/mL (≈ 0.719 µM); in the data set on Ser. marcescens, 10104, less than 0.1 µg/mL. Besides, the MIC came out at 1.56 µg/mL (≈ 2.88 µM) with Ps. putida, IID 5121 and 0.78 µg/mL (≈ 1.44 µM) with Ps. aeruginosa, 32121. For the same compound, the LD50 in data set [1] was greater than 4000 mg/kg.

On to `CO/N=C(\C(=O)N[C@@H]1C(=O)N2C(C(=O)[O-])=C(C[n+]3cccc(-c4cnco4)c3)CS[C@H]12)c1csc(N)n1` [Compound G, 7β-[2-(2-Aminothiazol-4-yl)-2-methoxyiminoacetamido]-3-[3-(oxazol-5-yl)-1-pyridinio]methyl-3-cephem-4-carboxylate (syn isomer)], for which the MIC in the data set on Ps. aeruginosa, 32234 was 1.56 µg/mL (≈ 2.88 µM); with Ps. aeruginosa, 32104, 3.13 µg/mL (≈ 5.78 µM); in the data set on Pr. vulgaris, 08601, 0.1 µg/mL (≈ 0.185 µM); against E. coli, NIHJ, less than 0.1 µg/mL; in the data set with S. aureus, 209P, 0.39 µg/mL (≈ 0.72 µM); in the data set with Ser. marcescens, 10104, less than 0.1 µg/mL. Also, the MIC with Ps. putida, IID 5121 was 12.5 µg/mL (≈ 23.1 µM); against Ps. aeruginosa, 32121, 1.56 µg/mL (≈ 2.88 µM).

With `CO/N=C(\C(=O)N[C@@H]1C(=O)N2C(C(=O)[O-])=C(C[n+]3ccc(-c4csnn4)cc3)CS[C@H]12)c1csc(N)n1` [Compound H, 7β-[2-(2-Aminothiazol-4-yl)-2-methoxyiminoacetamido]-3-[4-(1,2,3-thiadiazol-4-yl)-1-pyridinio]methyl-3-cephem-4-carboxylate dihydrochloride (syn isomer)], the MIC was 0.78 µg/mL against Ps. aeruginosa, 32234; 1.56 µg/mL against Ps. aeruginosa, 32104; less than 0.1 µg/mL against Pr. vulgaris, 08601; less than 0.1 µg/mL with E. coli, NIHJ; 0.39 µg/mL in the data set with S. aureus, 209P; less than 0.1 µg/mL against Ser. marcescens, 10104. Moreover, the MIC in the data set on Ps. putida, IID 5121 turned out to be 12.5 µg/mL; against Ps. aeruginosa, 32121 it was 1.56 µg/mL.
